Experimental data published in patent publication US20240238310A1, “MODULATION OF SEX STEROID HORMONE PRODUCTION AND ACTIVITY FOR TREATING AND PREVENTING HERNIAS” (Northwestern University, priority 2020, published 2024).

Tested on: Arom^hum mice
Assay: Prevention of inguinal hernia, LAMT fibrosis and atrophy in Arom^hum mice (treatment started before hernia formation)
Assay type: in vivo, mouse
Conditions: Arom^hum mice
Excerpt: Increased LAMT estrogen levels are associated with LAMT fibrosis, myocyte atrophy, and inguinal hernia development; aromatase inhibitor prevents hernia formation in Arom^hum mice. […] None of the WT littermates (n=32) developed hernia.
In the mouse, the scrotum is connected to the peritoneal cavity with a narrow funicular (or inguinal) canal, whose walls are composed of LAMT. Structurally normal LAMT is essential to maintain the tone of this canal and prevents herniation of bowel. LAMT is the critical site affected by E2 excess (FIGS. 2, 5, 6). As in many other tissues, stromal cells intimately interact with parenchymal cells (myocytes) in UAMT and LAMT (FIG. 6). […] Administration of the aromatase inhibitor letrozole started at 3 weeks of age for 12 weeks prevented LAMT atrophy, fibrosis and herniation in all (10 out of 10) treated Arom^hum mice (FIG. 6B).
Experiment 1a1: Does aromatase inhibition arrest or reverse LAMT fibrosis, atrophy, and hernia in male Arom^hum mice? […] The hernias will be classified as mild, early moderate, late moderate and severe if the bulging area through muscle tissue is <100 mm^2 (˜4 weeks), 100-150 mm^2 (˜6 weeks), 150-200 mm^2 (˜8 weeks), or >200 mm^2 (˜10 weeks), respectively. First, we will treat Arom^hum mice showing mild hernias with letrozole (SC 10 μg/day release pellet) or vehicle starting at 4 weeks of age for 12 weeks^63. We will assess whether muscle fibrosis, atrophy, and hernia can be arrested or reversed in mildly (<100 mm^2) affected animals. If early letrozole treatment can arrest mild muscle fibrosis, we will delay the initiation of treatment to 6, 8, or 10 weeks of age to determine whether letrozole can arrest or reverse the growth of the early moderate (6 weeks), late moderate (8 weeks) or severe hernia (10 weeks). Hernia development will be monitored by visual inspection twice a week for 12 weeks after letrozole administration and will be reported as hernia incidence using Kaplan-Meier curve analysis. The length and width of the observed hernias will be measured to calculate the surface area (length×width). After completion of the treatment, the mice will be dissected, and LAMT, UAMT (control), and serum will be collected. One hundred mg of frozen muscle tissue will be obtained to measure tissue estrogen levels. Circulating and tissue (LAMT and UAMT) E2 levels will be measured at the IIT Research Institute by Dr. Miguel Muzzio (see letter) using LC-MS^2. We will use immunoblotting and IHC to determine ERα expression in LAMT and UAMT.
This finding was published in PNAS in Oct., 2018. […] We treated Arom^hum mice with fulvestrant for 12 weeks starting at the age of 4 weeks (before hernia formation). As expected, placebo-treated Arom^hum mice developed scrotal hernias.

SMILES: C[C@]12CC[C@@H]3c4ccc(O)cc4C[C@@H](CCCCCCCCC[S+]([O-])CCCC(F)(F)C(F)(F)F)[C@H]3[C@@H]1CC[C@@H]2O (stereo partly drawn) [fulvestrant]
- development of LAMT fibrosis (fibrotic area, Masson's trichrome) (4-week-old mice treated for 12 weeks, FIGS. 15C and D): rescues lower abdominal muscle tissue (LAMT) fibrosis and myocyte atrophy
- myofiber atrophy (myofiber cross-sectional area) (4-week-old mice treated for 12 weeks, FIGS. 15C and E): completely prevented myofiber atrophy
- hernia formation (fulvestrant for 12 weeks starting at the age of 4 weeks (before hernia formation)): completely prevented by fulvestrant administration
